# Legend:
# Apoe-/- mice = test: High cholesterol diet-induced atherosclerosis in Apoe-/- mice; assay type: in vivo, mouse
# Description: C57BL/6J (N000013, Gempharmatech, Nanjing, Jiangsu, China) and Apoe^-/- (T001458, Gempharmatech, Nanjing, Jiangsu, China) mice were employed. […] Alipoprotein E knockout (Apoe^-/-) mice were subjected to a 1.25% high cholesterol diet (#D12108C, RESEARCH DIETS, New Brunswick, NJ, USA). After 7 weeks of atherosclerosis induction, intraperitoneal injection of ISOGK (20 mg/kg/day) was initiated and continued for additional 8 weeks. Upon reaching the designated experimental endpoint, blood was collected retro-orbitally, and serum was isolated for subsequent biochemical parameter analysis. Subsequently, the aorta and heart tissues were processed. The aorta was subjected to Oil Red O staining (#G1260, SolarBio, Beijing, China) for en face examination, and cryosections of the aortic sinus were prepared for analysis as we previously described. The serum lipid profile was evaluated utilizing colorimetric kits from Leidu Biotech (Shenzhen, China). Liver samples were gathered, processed into a homogenate, and then centrifuged. The resulting transparent supernatant was utilized for assessing hepatic triglyceride (TG) and total cholesterol (TC) concentrations using kits obtained from commercial sources (290-63701 for TG, 294-65801 for TC; Wako, Tokyo, Japan and E-BC-K261-M for TG, E-BC-K109-M for TC; Elabscience, Wuhan, China). The levels of TG and TC were normalized against the weight of the liver tissue. Kits for antioxidant-related indicators, including GSH (S0059S, Beyotime, Shanghai, China), MDA (S0131S, Beyotime, Shanghai, China), SOD (S0101S, Beyotime, Shanghai, China), and ox-LDL (CSB-E07933m, CUSABIO, Beijing, China), were detected in mouse serum. Acly^flox/flox mice were sourced from the Shanghai Model Organisms Center (no. NM-CKO-200076). The Institutional Animal Care and Use Committee of the University of Science and Technology of China (USTC) approved all animal care procedures (approval number USTCACUC27120124102, USTCACUC212401038).
# (§1) Plasma levels of TC, TG, LDL-C, and high-density lipoprotein cholesterol (HDL-C) were determined following the manufacturer's instructions. Liver tissues (30-40 mg) were homogenized in 0.5 mL of cold PBS for hepatic TG and cholesterol measurement. A 0.4 mL homogenate was combined with 1.4 mL of a CHCl3/CH3OH mixture (2:1, v/v) and shaken overnight at room temperature. Following centrifugation at 2,500 × g for a period of 10 min, the organic phase was meticulously transferred and permitted to air-dry. The residual organic material was then reconstituted in 800 μL of ethanol containing 1% Triton X-100, whereby the ethanol served to solubilize the material.
# Fast protein liquid chromatography (FPLC) was employed to analyze plasma lipoproteins using 200 μL of pooled plasma samples. The samples were initially filtered through 0.22-µm filters and subsequently loaded onto Tricorn high-performance Superose S-6 10/300GL columns (Amersham Biosciences). Elution was conducted with PBS at a constant flow rate of 0.25 mL/min. The eluted fractions (500 μL each) were subjected to analysis for TG and TC concentrations using the aforementioned commercial assay kits.
# Cytokines, including C-reactive protein (CRP) (RK04303, ABclonal, Guangzhou, China), interleukin-1 beta (IL-1 β) (RK00006, ABclonal, Guangzhou, China), and interleukin-6 (IL-6) (RK00008, ABclonal, Guangzhou, China), were extracted from mouse serum and analyzed using enzyme-linked immunosorbent assay (ELISA) kits. All procedures were conducted in accordance with the instructions provided by the manufacturers.
# Tissue slides from the male Apoe^-/- mice aortic sinus was washed with PBS and then permeabilized in a solution of PBS with 0.3% BSA and 0.03% Triton X-100 for 1 h at room temperature. These sections were subsequently incubated overnight with primary antibodies at a 1:400 dilution, followed by a 1-h incubation with Alexa Fluor 488 or 546-conjugated sary antibodies at a 1:2000 dilution, also at room temperature. […]
# Ldlr-/- hamsters = test: High cholesterol diet-fed Ldlr-/- hamsters; assay type: in vivo, hamster
# Description: Syrian golden hamsters with a deficiency in the low-density lipoprotein receptor (Ldlr) gene were generated using the clustered regularly interspaced short palindromic repeats (CRISPR) and CRISPR-associated protein 9 (Cas9) gene editing system, as previously described. Male Ldlr^-/- hamsters at 8-week-old were randomly divided into three groups. The animals were administered with vehicle, ISOGK (2 mg/kg/day), or ISOGK (5 mg/kg/day) for a period of four weeks. The hamsters were maintained on a 14-h light/10-h dark cycle at 24 °C and were fed a 1.25% high cholesterol diet. Unless otherwise stated, the hamsters were fasted for 12 h prior to euthanasia. All experiments were conducted in accordance with the principles of experimental animal care (NIH publication no. 85-23, revised 1996) and were approved by the Animal Care and Use Committee of Peking University (approval number LA2022-147).
# as §1
# Srebf1c and Fasn mRNA = test: RT-qPCR of lipid synthesis genes after ACLY knockdown in AML12 and Huh7 cells; assay type: cell-based; settings: 5 µM, 50 µM PA, 12 h
# Description: Total RNA was extracted from cultured cells or animal tissue using RNeasy kits (RN001-50Rxns, YiShan, Shanghai, China). Subsequently, cDNA was generated using a Takara Reverse Transcription Kit (RR037B, Takara, Kyoto, Japan). Subsequently, quantitative real-time polymerase chain reaction (RT-qPCR) assays were conducted using ChamQ SYBR qPCR Master Mix (Q311-02, Vazyme, Nanjing, China), following the reverse transcription. The Roche LC96 real-time PCR detection system was employed for the detection of results, with glyceraldehyde-3-phosphate dehydrogenase (GAPDH) serving as the loading control for the quantification of mRNA levels. The fold change relative to the respective controls was determined using the 2^(^-ΔΔCt) method. Primers were designed using the PrimerQuest software and subsequently synthesised by Sangon Biotech (Shanghai, China).
# [1] = 20 mg/kg/day i.p., 8 weeks, male or female Apoe-/- mice
# [2] = female Apoe-/- mice, 20 mg/kg/day, 8 weeks
# [3] = male Apoe-/- mice, 20 mg/kg/day, 8 weeks
smiles,measurement,setting,value
"COc1ccc(-c2cc(=O)c3c(O)cc(O)c(-c4cc(-c5cc(=O)c6c(O)cc(O)cc6o5)ccc4OC)c3o2)cc1 [ISOGK, Isoginkgetin]",body weight vs vehicle,Apoe-/- mice; [1],No significant changes in body weight
same,serum ALT and AST,Apoe-/- mice; [1],no significant changes
same,liver H&E and Sirius red staining,"Apoe-/- mice; 20 mg/kg/day, 8 weeks, Apoe-/- mice",no substantial pathological alterations
same,necrotic core area in aortic sinus (H&E),"Apoe-/- mice; Apoe-/- mice, 20 mg/kg/day, 8 weeks",notable reduction in the necrotic core area
same,"oxidative stress markers in serum (GSH, MDA, SOD, ox-LDL)","Apoe-/- mice; Apoe-/- mice, 8 weeks",no significant alterations
same,LDLR and ACLY protein expression in liver tissues,"Apoe-/- mice; Apoe-/- mice, Western blot",no significant change in either LDLR or ACLY protein expression
same,TG levels in serum and liver tissue,"Apoe-/- mice; Apoe-/- mice, irrespective of gender",notable decline in TG levels
same,serum LDL-C and HDL-C,Apoe-/- mice; female Apoe-/- mice,remained unchanged
same,decrease in aortic sinus lesion area (ORO) vs vehicle,Apoe-/- mice; [2],45.74%
same,decrease in liver tissue TC,Apoe-/- mice; [2],32.34%
same,decrease in serum TC,Apoe-/- mice; [2],24.24%
same,reduction of en face aortic lesion area (ORO) vs vehicle,Apoe-/- mice; [2],3.88%
same,TG and cholesterol carried in VLDL particles (FPLC),"Apoe-/- mice; female Apoe-/- mice, pooled plasma",significant reduction
same,serum LDL-C,Apoe-/- mice; male Apoe-/- mice,decreased the serum levels of LDL-C
same,content of macrophages in the aortic sinus (immunofluorescence),Apoe-/- mice; [3],substantial decline
same,content of smooth muscle cells and endothelial cells in the aortic sinus,Apoe-/- mice; [3],remained unaltered
same,decrease in aortic sinus lesion area (ORO) vs vehicle,Apoe-/- mice; [3],46.35%
same,decrease in liver tissue TC,Apoe-/- mice; [3],29.98%
same,decrease in serum TC,Apoe-/- mice; [3],27.15%
same,expression of cholesterol efflux genes in the liver,"Apoe-/- mice; male Apoe-/- mice, qRT-PCR",no significant differences
same,"serum CRP, IL-1β and IL-6 (ELISA)","Apoe-/- mice; male or female Apoe-/- mice, vehicle vs ISOGK",no statistically significant differences
same,lipid accumulation in aortic sinus (Oil Red O),Ldlr-/- hamsters,significantly reduced lipid accumulation
same,lipid accumulation in liver tissues (Nile Red),Ldlr-/- hamsters,significantly reduced lipid accumulation
same,reduction in hepatic TC vs vehicle,Ldlr-/- hamsters; 2 mg/kg/day i.p.,25.89%
same,reduction in hepatic TC vs vehicle,Ldlr-/- hamsters; 5 mg/kg/day i.p.,35.75%
same,decrease in serum TG levels (Figure 5B),Ldlr-/- hamsters; high dose 5 mg/kg/day,61.32%
same,decrease in serum non-HDL-C,Ldlr-/- hamsters; high dose 5 mg/kg/day,51.76%
same,reduction in serum TC (Figure 5C),Ldlr-/- hamsters; high dose 5 mg/kg/day,52.15%
same,reduction in serum TG (Figure 5C),Ldlr-/- hamsters; high dose 5 mg/kg/day,51.38%
same,reduction of aortic plaque area (Oil Red O) vs vehicle,Ldlr-/- hamsters; high-dose 5 mg/kg/day,29.85%
same,serum HDL-C levels,Ldlr-/- hamsters; low and high doses,without affecting HDL-C levels
same,decrease in serum TG levels (Figure 5B),Ldlr-/- hamsters; low dose 2 mg/kg/day,47.57%
same,decrease in serum non-HDL-C,Ldlr-/- hamsters; low dose 2 mg/kg/day,28.16%
same,reduction in serum TC (Figure 5C),Ldlr-/- hamsters; low dose 2 mg/kg/day,28.72%
same,reduction in serum TG (Figure 5C),Ldlr-/- hamsters; low dose 2 mg/kg/day,47.99%
same,reduction of aortic plaque area (Oil Red O) vs vehicle,Ldlr-/- hamsters; low-dose 2 mg/kg/day,21.74%
same,mRNA expression of Srebf1c and Fasn following ACLY knockdown,Srebf1c and Fasn mRNA,did not demonstrate a further reduction

# — PMC11984407, “A natural small molecule isoginkgetin alleviates hypercholesterolemia and atherosclerosis by targeting ACLY” (Theranostics, 2025)
